The subject of the assay is HFL1 cells. Description: HFL1 cell proliferation inhibition (CCK-8, optical density at 450 nm). Type of assay: cell-based. The note with it: for IC50: Homo sapiens, 48 hours after dosing, CCK-8, cell proliferation inhibition; for The ratio with PFD: IC50 ratio of Pirfenidone to the compound, 48 hours. The method, then: Example 69: Cell Experiment Method
HFL1 cells in exponential growth phase were cultured, cells were digested and collected using traditional subculturing when reaching 85-95% fusion and the cells were counted to adjust, the cell density to 5×10^4 cells per milliliter, then the cells were seed into 96-well plates, 100 μl/well and incubated in a 5% CO2 incubator at 37° C.
The supernatant of the 96-well plates was removed at 24 hours after the cells adhering to the wall and solutions containing the above compounds with different concentration were added to the wells, with 100 μl/well (the concentration of each compounds are in the range of 0.003-8 mmol/L) each concentration in 3 replicates, and the cells were cultured 48 hours after dosing.
3. Testing the Optical Density
10 μl of CCK-8 solution was added to each well 48 hours after dosing, and incubated for 2 hours. The optical density (A) of each well was determined using a microplate reader at 450 nm wavelength. The cell proliferation inhibition ratio of each compound were calculated based on A using the formula of: cell proliferation inhibition ratio(inhibition ratio, IR)=(1−value of experimental group (Ai)/value of control group (Ao))×100%, in which IC50 of each compound at 48 hours was calculated by data processing software, wherein the control group was the blank group.

In general, IC50 refers to the point on the concentration scale where inhibition reaches its midpoint. A high value points to weaker potency. On to `Cc1cc(=O)n(-c2ccc(N3CCC(Cc4ccc(F)cc4)CC3)c(F)c2)c(C)n1` [Example 25, 3-(3-fluoro-4-(4-(4-fluorobenzyl)piperidin-1-yl)phenyl)-2,6-dimethylpyrimidin-4(3H)-one], for which it took 100 µM to reach half-maximal inhibition (IC50) and the “The ratio with PFD” value came to 107 multiple.
For the compound `Cc1cc(=O)n(-c2ccc(N3CCC(Cc4ccc(C(F)(F)F)c5cccnc45)CC3)c(Cl)c2)c(C)n1` [Example 56, 3-(3-chloro-4-(4-((5-(trifluoromethyl)quinolin-8-yl)methyl)piperidin-1-yl)phenyl)-2,6-dimethylpyrimidin-4(3H)-one], the midpoint of inhibition, the IC50, lay at 40 µM and the “The ratio with PFD” value turned out to be 209 multiple.
Regarding `Cc1cc(=O)n(-c2ccc(N3CCC(Cc4cccc5cccnc45)CC3)c(Cl)c2)c(C)n1` [Example 22, 3-(3-chloro-4-(4-(quinolin-8-ylmethyl)piperidin-1-yl)phenyl)-2,6-dimethylpyrimidin-4(3H)-one], it took 90 µM to reach half-maximal inhibition (IC50) and the “The ratio with PFD” value is reported as 101 multiple.
For `Cc1cc(=O)n(-c2ccc(N3CCC(COc4cccc(F)c4)CC3)c(Cl)c2)c(C)n1` [Example 30, 3-(3-chloro-4-(4-((3-fluorophenoxy)methyl)piperidin-1-yl)phenyl)-2,6-dimethylpyrimidin-4(3H)-one], the half-inhibitory concentration (IC50) turned out to be 60 µM and the “The ratio with PFD” value is recorded as 136 multiple.
The like results for `Cc1cc(=O)n(-c2ccc(N3CCC(Cc4ccccc4-c4ccccc4)CC3)c(Cl)c2)c(C)n1` [Example 13, 3-(4-(4-([1,1′-biphenyl]-2-ylmethyl)piperidin-1-yl)-3-chlorophenyl)-2,6-dimethylpyrimidin-4(3H)-one] were, in that order, 70 µM and 118 multiple.
As for `Cc1cc(=O)n(-c2ccc(N3CCC(Oc4cccc(N)c4)CC3)c(Cl)c2)c(C)n1` [Example 34, 3-(4-(4-(3-aminophenoxy)piperidin-1-yl)-3-chlorophenyl)-2,6-dimethylpyrimidin-4(3H)-one], the IC50 is 90 µM and the “The ratio with PFD” value amounted to 154 multiple.
For `Cc1cc(=O)n(-c2ccc(N3CCC(Cc4ccc(F)c(F)c4)CC3)c(Cl)c2)c(C)n1` [Example 44, 3-(3-chloro-4-(4-(3,4-difluorobenzyl)piperidin-1-yl)phenyl)-2,6-dimethylpyrimidin-4(3H)-one] the same measures were 70 µM and 139 multiple.
For `Cc1cc(=O)n(-c2ccc(N3CCC(Cc4cc(F)c(F)c(F)c4)CC3)c(Cl)c2)c(C)n1` [Example 17, 3-(3-chloro-4-(4-(3,4,5-trifluorobenzyl)piperidin-1-yl)phenyl)-2,6-dimethylpyrimidin-4(3H)-one], inhibition was half-maximal at 70 µM (IC50) and the “The ratio with PFD” value is 137 multiple.
For `Cc1cc(=O)n(-c2ccc(N3CCC(Cc4cccc5ccccc45)CC3)c(F)c2)c(C)n1` [Example 26, 3-(3-fluoro-4-(4-(naphthalen-1-ylmethyl)piperidin-1-yl)phenyl)-2,6-dimethylpyrimidin-4(3H)-one], the 50% inhibitory concentration (IC50) worked out at 60 µM and the “The ratio with PFD” value turned out to be 137 multiple.
For `C=CCc1ccccc1OC1CCN(c2ccc(-n3c(C)nc(C)cc3=O)cc2Cl)CC1` [Example 33, 3-(4-(4-(2-allylphenoxy)piperidin-1-yl)-3-chlorophenyl)-2,6-dimethylpyrimidin-4(3H)-one], half-maximal inhibition (IC50) required 70 µM and the “The ratio with PFD” value stood at 149 multiple.
Regarding `Cc1cc(=O)n(-c2ccc(N3CCC(Oc4cccc(C#N)c4)CC3)c(Cl)c2)c(C)n1` [Example 29, 3-((1-(2-chloro-4-(2,4-dimethyl-6-oxopyrimidin-1 (6H)-yl)phenyl)piperidin-4-yl)oxy)benzonitrile], the IC50 was 90 µM and the “The ratio with PFD” value was found to be 107 multiple.
The like results for `Cc1cc(=O)n(-c2ccc(N3CCC(Cc4cc(F)c(F)c5cccnc45)CC3)c(Cl)c2)c(C)n1` [Example 57, 3-(3-chloro-4-(4-((5,6-difluoroquinolin-8-yl)methyl)piperidin-1-yl)phenyl)-2,6-dimethylpyrimidin-4(3H)-one] were, in that order, 60 µM and 168 multiple.
For the compound `Cc1cc(=O)n(-c2ccc(N3CCC(Cc4ccc(Cl)c(F)c4)CC3)c(Cl)c2)c(C)n1` [Example 16, 3-(3-chloro-4-(4-(4-chloro-3-fluorobenzyl)piperidin-1-yl)phenyl)-2,6-dimethylpyrimidin-4(3H)-one], half-maximal inhibition (IC50) required 70 µM and the “The ratio with PFD” value stood at 139 multiple.
As for `Cc1cc(=O)n(-c2ccc(N3CCC(Cc4cc(F)cc5cccnc45)CC3)c(Cl)c2)c(C)n1` [Example 54, 3-(3-chloro-4-(4-((6-fluoroquinolin-8-yl)methyl)piperidin-1-yl)phenyl)-2,6-dimethylpyrimidin-4(3H)-one], the half-maximal inhibitory concentration (IC50) was determined as 40 µM and the “The ratio with PFD” value was determined as 209 multiple.
As to `Cc1cc(=O)n(-c2ccc(N3CCC(Cc4ccc5ccccc5c4)CC3)c(Cl)c2)c(C)n1` [Example 10, 3-(3-chloro-4-(4-(naphthalen-2-ylmethyl)piperidin-1-yl)phenyl)-2,6-dimethylpyrimidin-4(3H)-one], the IC50 came to 78 µM and the “The ratio with PFD” value came out at 111 multiple.
Regarding `COc1cccc(CC2CCN(c3ccc(-n4c(C)nc(C)cc4=O)cc3Cl)CC2)c1` [Example 12, 3-(3-chloro-4-(4-(3-methoxybenzyl)piperidin-1-yl)phenyl)-2,6-dimethylpyrimidin-4(3H)-one], the IC50 was 80 µM and the “The ratio with PFD” value came out at 112 multiple.
For the compound `Cc1cc(=O)n(-c2ccc(N3CCC(Cc4ccc(F)c5ccccc45)CC3)c(Cl)c2)c(C)n1` [Example 58, 3-(3-chloro-4-(4-((4-fluoronaphthalen-1-yl)methyl)piperidin-1-yl)phenyl)-2,6-dimethylpyrimidin-4(3H)-one], half-maximal inhibition (IC50) was put at 64 µM and the “The ratio with PFD” value came to 357 multiple.
As to `Cc1cc(=O)n(-c2ccc(N3CCC(COc4cccc(C(F)(F)F)c4)CC3)c(Cl)c2)c(C)n1` [Example 53, 3-(3-chloro-4-(4-((3-(trifluoromethyl)phenoxy)methyl)piperidin-1-yl)phenyl)-2,6-dimethylpyrimidin-4(3H)-one], half-maximal inhibition (IC50) required 38 µM and the “The ratio with PFD” value is recorded as 602 multiple.
Consider `Cc1cc(=O)n(-c2ccc(N3CCC(Oc4ccccc4OC(F)(F)F)CC3)c(Cl)c2)c(C)n1` [Example 35, 3-(3-chloro-4-(4-(2-(trifluoromethoxy)phenoxy)piperidin-1-yl)phenyl)-2,6-dimethylpyrimidin-4(3H)-one], for which the half-maximal inhibitory concentration (IC50) was 120 µM and the “The ratio with PFD” value is recorded as 119 multiple.
`Cc1cc(=O)n(-c2ccc(N3CCC(Cc4ccccc4Cl)CC3)c(Cl)c2)c(C)n1` [Example 15, 3-(3-chloro-4-(4-(2-chlorobenzyl)piperidin-1-yl)phenyl)-2,6-dimethylpyrimidin-4(3H)-one]: the concentration for half-maximal inhibition (IC50) was determined as 65 µM and the “The ratio with PFD” value is on record as 151 multiple.
With `Cc1cc(=O)n(-c2ccc(N3CCC(Cc4cccc(Cl)c4)CC3)c(Cl)c2)c(C)n1` [Example 19, 3-(3-chloro-4-(4-(3-chlorobenzyl)piperidin-1-yl)phenyl)-2,6-dimethylpyrimidin-4(3H)-one], the IC50 turned out to be 70 µM and the “The ratio with PFD” value was 137 multiple.
As for `Cc1ccc(OC2CCN(c3ccc(-n4c(C)nc(C)cc4=O)cc3Cl)CC2)c(Cl)c1` [Example 37, 3-(3-chloro-4-(4-(2-chloro-4-methylphenoxy)piperidin-1-yl)phenyl)-2,6-dimethylpyrimidin-4(3H)-one], the IC50 was 80 µM and the “The ratio with PFD” value came to 181 multiple.
On to `Cc1cc(=O)n(-c2ccc(N3CCC(Cc4cccc(C(F)(F)F)c4)CC3)c(Cl)c2)c(C)n1` [Example 14, 3-(3-chloro-4-(4-(3-(trifluoromethyl)benzyl)piperidin-1-yl)phenyl)-2,6-dimethylpyrimidin-4(3H)-one], for which the concentration for half-maximal inhibition (IC50) was determined as 60 µM and the “The ratio with PFD” value is on record as 139 multiple.
As for `Cc1cc(=O)n(-c2ccc(N3CCC(Cc4ccc5cc(F)ccc5c4)CC3)c(Cl)c2)c(C)n1` [Example 51, 3-(3-chloro-4-(4-((6-fluoronaphthalen-2-yl)methyl)piperidin-1-yl)phenyl)-2,6-dimethylpyrimidin-4(3H)-one], the IC50 is 37 µM and the “The ratio with PFD” value was determined as 618 multiple.
For `Cc1cc(=O)n(-c2ccc(N3CCC(Cc4ccccc4F)CC3)c(Cl)c2)c(C)n1` [Example 6, 3-(3-chloro-4-(4-(2-fluorobenzyl)piperidin-1-yl)phenyl)-2,6-dimethylpyrimidin-4(3H)-one], 70 µM corresponded to half-maximal inhibition (IC50) and the “The ratio with PFD” value stood at 121 multiple.
For `Cc1cc(=O)n(-c2ccc(N3CCC(Cc4cccc5ccccc45)CC3)c(Cl)c2)c(C)n1` [Example 9, 3-(3-chloro-4-(4-(naphthalen-1-ylmethyl)piperidin-1-yl)phenyl)-2,6-dimethylpyrimidin-4(3H)-one], inhibition was half-maximal at 80 µM (IC50) and the “The ratio with PFD” value is 179 multiple.
Turning to `Cc1cc(=O)n(-c2ccc(N3CCC(OCc4cccc(F)c4)CC3)c(Cl)c2)c(C)n1` [Example 32, 3-(3-chloro-4-(4-((3-fluorobenzyl)oxy)piperidin-1-yl)phenyl)-2,6-dimethylpyrimidin-4(3H)-one], the IC50 stood at 100 µM and the “The ratio with PFD” value came to 107 multiple.

These data come from US9902712B2, “Nitrogenous heterocyclic derivatives and their application in drugs” (Sunshine Lake Pharma Co., Ltd., priority 2013, dated 2018).
